Measured values from patent US20210322545A1 (priority 2016, published 2021).
Several values for one entry are separate records, joined by “and”; a condition that tells them apart may be missing. Identical values can stand only once. Entries after “also recorded” stand apart in the source; their conditions may differ. Like-named read-outs stand apart in the source and are kept apart here.

What was measured:
[1] = test system: intracranial CT-2A tumors; settings: mouse, in vivo
[2] = test system: U266, MM1R and MM1S cells; assay type: cell-based, human
EMT6 mammary tumors = assay type: in vivo, mouse
EMT6 cells [3] = assay type: cell-based, mouse
[4] = test system: CT-2A and K1580 glioblastoma cells; assay type: cell-based, mouse
[5] = mouse, in vivo
TNF-α = settings: mouse, in vivo, ip
EMT6, 4T1 or CT-2A cells = settings: mouse, in vivo
EMT6 cells [6] = assay: cells; assay type: cell-based; settings: Mus musculus, EMT6, read-out: EC50 of SMC therapy
HT-29 tumors = settings: mouse, in vivo
cancer cells = assay type: cell-based
MPC-11 Fluc cells = settings: mouse, in vivo
CD8 T-cells = assay type: cell-based, mouse
SNB75 cells [7] = assay: cells; assay type: cell-based; settings: Homo sapiens, SNB-75, read-out: EC50 of SMC therapy
CT-26 tumors = settings: mouse, in vivo, sc
SNB75 cells [8] = assay type: cell-based, human
glioma cells = assay type: cell-based
MM cells = assay type: cell-based
serum cytokines = settings: mouse, in vivo
Protocol: The detection of serum proteins following combinatorial SMC and anti-PD-1 treatment was analyzed by a flow cytometry-based multiplex kit (LEGENDplex inflammation panel from Biolegend).

[9] = test system: intracranial CT-2A tumors; settings: mouse, in vivo; remark: listed apart in the source
glioblastoma cells = assay type: cell-based
[10] = test system: U266, MM1R and MM1S cells
[11] = test system: intracranial GL261 tumors; settings: mouse, in vivo
VSVΔ51 = assay type: cell-based
[12] = EMT6 tumors, 50 mg/kg LCL161 oral gavage

Description for cIAP1/2 and XIAP: Cells were scraped, collected by centrifugation and lysed in RIPA lysis buffer containing a protease inhibitor cocktail (Roche, Laval, Canada). Equal amounts of soluble protein were separated on polyacrylamide gels followed by transfer to nitrocellulose membranes. […] Our rabbit anti-rat IAP1 and IAP3 polyclonal antibodies were used to detect human and mouse cIAP1/2 and XIAP, respectively. AlexaFluor680 (Invitrogen) or IRDye800 (Li-Cor, Lincoln, USA) were used to detect the primary antibodies, and infrared fluorescent signals were detected using the Odyssey Infrared Imaging System (Li-Cor).
Cells were scraped, collected by centrifugation, and lysed in RIPA lysis buffer containing a protease inhibitor cocktail (Roche). Tumors were excised, minced, and lysed as above. Equal amounts of soluble protein were separated on polyacrylamide gels followed by transfer to nitrocellulose membranes. […] Rabbit anti-rat IAP1 and IAP3 polyclonal antibodies were used to detect human and mouse cIAP1/2 and XIAP, respectively (1:5000; Cyclex Co.). AlexaFluor680 (Invitrogen) or IRDye800 (Li-Cor) (1:2500) were used to detect the primary antibodies, and infrared fluorescent signals were detected using the Odyssey Infrared Imaging System (Li-Cor).

Compound: IFNα
- neurotoxicity [1]: did not result in any overt neurotoxicity
- physical or behavioral defects in long-term survivors [1]: no overt physical or behavioral defects
- killing of MM cells with SMC [2]: very strong synergistic killing
- tumor growth and survival, single agent (EMT6 mammary tumors; mouse, in vivo): no effect on EMT6 tumor growth or overall survival

Compound: CC(C)Cn1cnc2c(N)nc3ccccc3c21 [imiquimod]
- bystander death of SMC treated EMT6 cells (EMT6 cells [3]): required splenocytes

Compound: poly(I:C)
- bystander death of SMC treated EMT6 cells (EMT6 cells [3]): led to EMT6 cell death directly
- cell death by brain lysates of treated mice in the presence of SMCs [4]: enhanced cell death
- physical or behavioral defects in long-term survivors [1]: no overt physical or behavioral defects
- toxicity of intracranial administration [5]: without overt toxicities
- TNFα levels from the brain (TNF-α): marked up-regulation
- tumor growth and survival, single agent (EMT6 mammary tumors; mouse, in vivo): no bearing on tumor growth

Compound: CN[C@@H](C)C(=O)N[C@H](C(=O)N1CCC[C@H]1c1nc(C(=O)c2ccc(F)cc2)cs1)C1CCCCC1 [LCL161]
- tumor engraftment on rechallenge of cured mice (EMT6, 4T1 or CT-2A cells): completely resistant to tumor engraftment
- EC50 (EMT6 cells [6]): > 2500 nM
- effect on HT-29 tumors, monotherapy (HT-29 tumors): neither monotherapy had any effect
- cell death by UV-inactivated conditioned media of VSVΔ51-infected cells (cancer cells): induced cell death only when the cells were co-treated with an SMC
- tolerability, combination treatment (MPC-11 Fluc cells): not well tolerated
- tumour burden (luminescence signal) (MPC-11 Fluc cells): almost no tumour burden
- tumour burden, combination treatment (MPC-11 Fluc cells): did not reduce tumour burden as effectively as VSVΔ51 alone
- cure rate [1]: 50%
- cure rate upon depletion of CD4+ T-cells [1]: 100%
- cure rate upon depletion of CD8+ T-cells [1]: completely abrogated
- durable cures [1]: 86% and 55%
- effect of IFNAR1 blocking antibody on SMC + anti-PD1 survival synergy [1]: negated the synergistic effects
- effect of anti-IFN-γ antibody on SMC + ICI synergy [1]: partially inhibited the synergistic effects
- effect of systemic TNF-α blockade on SMC + ICI efficacy [1]: almost a complete reversal of the efficacy
- neurotoxicity [1]: did not result in any overt neurotoxicity
- physical or behavioral defects in long-term survivors [1]: no overt physical or behavioral defects
- expected survival rate ([1]; po): 86%
- tolerability [5]: well tolerated
- tolerability of combination therapies [5]: well tolerated
- body weight after a single treatment ([5]; po, 50 mg/kg): minimal transient weight loss
- CD8+ T-cells expressing TNF-α (CD8 T-cells): significantly increased the proportion of CD8+ T-cells expressing TNF-α
- EC50 (SNB75 cells [7]): > 2500 nM
- duration of cIAP1/2 knockdown in tumors (cIAP1/2 and XIAP; [12]): at least 24 hrs
- duration of cIAP1/2 knockdown in tumors, in some cases (up to) (cIAP1/2 and XIAP; [12]): 48 to 72 h
- IAP levels in intracranial CT-2A tumors (cIAP1/2 and XIAP; direct intracranial injection, 10 μL of a 100 μM solution): potent down-regulation of both cIAP1/2 and XIAP proteins
- IAP levels in intracranial CT-2A tumors (cIAP1/2 and XIAP; systemic SMC, several hours after drug administration, indicative of crossing the BBB): degradation of cIAP1/2 proteins
- tumor growth and survival, single agent (CT-26 tumors): modest decrease of the tumor growth rate and a slight extension of survival
- effect of SMC on induction of TRAIL and TNFα by IFNβ (SNB75 cells [8]): potentiated the induction
- surface expression of PD-L1 and MHC I markers (glioma cells): no significant impact
- cIAP1 and cIAP2 protein (MM cells): rapid degradation of cIAP1 and cIAP2
- serum IFN-, IL-1-α, IL-1β, IL-17, IFN-γ, IL-27, GM-CSF (serum cytokines): statistically significant increases
- CD4+ and CD25+ T-cells (Treg) in tumors [9]: significant decrease
- CD4+ cells expressing IFN-γ [9]: decrease in the proportion of CD4+ cells expressing IFN-γ
- CD8+ T-cells expressing PD-1 in tumors [9]: significant increase in CD8+ T-cells expressing PD-1
- CD3+ and CD3+ CD8+ cells expressing PD-1 ([9]; po, 75 mg/kg): robust increase
- death of cultured and primary glioblastoma cell lines (glioblastoma cells): killed
- sensitivity of CT-2A cells to combined SMC and recombinant IFN-α (glioblastoma cells): partially sensitive
- PD-L1 expression [10]: Comparable upregulation
- durable cure rate [11]: 33%
- effect of SMC treatment on growth kinetics of VSVΔ51 (VSVΔ51): does not affect the growth kinetics
- tumor response, oral SMC + BCG (EMT6 mammary tumors; BCG intratumorally or intraperitoneally): significant tumor regression
- durable cure rate (EMT6 mammary tumors; mouse, in vivo): 75%
- durable cures of treated mice (EMT6 mammary tumors; mouse, in vivo): 88%
- tumor growth and survival, single agent (EMT6 mammary tumors; mouse, in vivo): a decrease in the rate of tumor growth and a modest extension in survival; also recorded: slightly delayed EMT6 tumor growth rates and slightly extended the survival
- cure rate (EMT6 mammary tumors; mouse, in vivo, ip): 57%
- durable cures of treated mice (EMT6 mammary tumors; mouse, in vivo, ip): 60%

Compound: CC[C@H](NC(=O)[C@H](C)NC)C(=O)N1C[C@@H](O)C[C@H]1Cc1c(-c2[nH]c3cc(F)ccc3c2C[C@@H]2C[C@H](O)CN2C(=O)[C@H](CC)NC(=O)[C@H](C)NC)[nH]c2cc(F)ccc12 [Birinapant]
- survival ([1]; ip): significant increase in survival
